Source: ChEMBL document CHEMBL1201862, “PubChem BioAssay data set” (2004)
Active and inactive are the calls of the source.

Columns and labels:
[1] = molecular target: T1, Heat shock factor protein 1 (Mus musculus, UniProt P38532); assay: decrease of HSF1-responsive luciferase luminescence – cell-based, NIH3T3, dose retest, confirmation (AID 2382); assay type: functional;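 note: NIH3T3 fibroblasts with HSF1-driven luciferase reporter stressed by proteasome inhibitor MG132; luminescence from HSF1-driven luciferase expression after 8 hours of MG132 stress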
T1 sequence (P38532 whole entry): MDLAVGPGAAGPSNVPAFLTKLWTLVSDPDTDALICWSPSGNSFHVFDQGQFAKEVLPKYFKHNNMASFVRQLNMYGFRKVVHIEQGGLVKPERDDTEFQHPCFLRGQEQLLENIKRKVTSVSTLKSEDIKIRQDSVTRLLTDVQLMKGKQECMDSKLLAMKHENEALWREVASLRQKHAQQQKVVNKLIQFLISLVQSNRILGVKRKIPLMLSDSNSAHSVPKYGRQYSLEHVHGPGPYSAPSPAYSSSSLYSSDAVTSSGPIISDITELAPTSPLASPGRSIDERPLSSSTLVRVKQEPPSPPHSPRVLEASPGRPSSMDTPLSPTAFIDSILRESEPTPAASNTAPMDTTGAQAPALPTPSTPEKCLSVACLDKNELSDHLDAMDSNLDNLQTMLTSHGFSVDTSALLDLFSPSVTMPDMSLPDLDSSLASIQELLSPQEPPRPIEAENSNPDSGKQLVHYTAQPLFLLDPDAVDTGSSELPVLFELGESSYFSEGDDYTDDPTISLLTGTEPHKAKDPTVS

Lethal factor = Lethal factor (Bacillus anthracis, UniProt P15917); assay: High-throughput multiplex microsphere dose response for inhibitors of toxin protease, specifically Lethal Factor protease, compounds from Cherry Pick 02.; assay type: functional; conditions: read-out: EC50_MICROM
[2] = molecular target: Botulinum neurotoxin type F (Clostridium botulinum, UniProt P30996); assay: High-throughput multiplex microsphere dose response for inhibitors of toxin protease, specifically Botulinum neurotoxin light chain F protease, compounds from Cherry Pick 02.; assay type: functional; conditions: read-out: EC50_MICROM
Protein skinhead-1 = molecular target: T2, Protein skinhead-1 (Caenorhabditis elegans, UniProt P34707); assay type: functional
T2 sequence (P34707 whole entry): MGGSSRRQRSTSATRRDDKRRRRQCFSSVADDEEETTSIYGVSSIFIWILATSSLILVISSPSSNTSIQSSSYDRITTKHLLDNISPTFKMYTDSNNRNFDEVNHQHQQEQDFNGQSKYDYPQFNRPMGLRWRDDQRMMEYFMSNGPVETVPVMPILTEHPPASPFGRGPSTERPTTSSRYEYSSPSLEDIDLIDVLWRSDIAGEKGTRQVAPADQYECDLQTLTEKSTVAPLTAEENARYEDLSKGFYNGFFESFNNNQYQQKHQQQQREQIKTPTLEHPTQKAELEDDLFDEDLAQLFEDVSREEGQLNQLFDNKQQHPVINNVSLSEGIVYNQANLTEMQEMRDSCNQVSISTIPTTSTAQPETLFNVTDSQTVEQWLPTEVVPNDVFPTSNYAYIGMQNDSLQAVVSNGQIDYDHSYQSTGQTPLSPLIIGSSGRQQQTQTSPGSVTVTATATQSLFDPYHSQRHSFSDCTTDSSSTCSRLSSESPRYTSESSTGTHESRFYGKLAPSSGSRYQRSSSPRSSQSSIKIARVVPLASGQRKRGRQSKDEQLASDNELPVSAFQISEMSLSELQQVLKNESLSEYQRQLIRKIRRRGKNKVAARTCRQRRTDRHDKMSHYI

Beta-lactamase [3] = molecular target: Beta-lactamase (Pseudomonas aeruginosa, UniProt Q79MP6);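 note: biochemical dose-response test of metallo-beta-lactamase enzyme inhibition, read out by epi-absorbance; purified recombinant IMP-1 metallo-beta-lactamase with nitrocefin as substrate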
Beta-lactamase [4] = molecular target: Beta-lactamase (Salmonella choleraesuis (strain SC-B67), UniProt Q5J463)
cells = assay type: functional
[5] = reduction of Shn3 3'UTR-driven luciferase in osteoblasts – cell-based, Clone20 osteoblasts, firefly luciferase, cherry-picked, dose response (AID 624132); assay type: functional;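 note: firefly luciferase luminescence from reporter carrying the Shn3 3'UTR in osteoblasts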
[6] = loss of viability in HepG2 cells – cell-based, CellTiter-Glo, cherry-picked, cytotoxicity control for Shn3 inhibitor project, dose response (AID 624134); assay type: functional
[7] = non-specific 3'UTR reporter inhibition in Clone20-Shn3RL – cell-based, Renilla luciferase, cherry-picked, counter-screen for Shn3 inhibitor project, dose response (AID 624133); assay type: functional
[8] = molecular target: T3, Low molecular weight phosphotyrosine protein phosphatase (Homo sapiens, UniProt P24666); assay type: functional; conditions: read-out: IC50_Mean
T3 sequence (P24666 whole entry): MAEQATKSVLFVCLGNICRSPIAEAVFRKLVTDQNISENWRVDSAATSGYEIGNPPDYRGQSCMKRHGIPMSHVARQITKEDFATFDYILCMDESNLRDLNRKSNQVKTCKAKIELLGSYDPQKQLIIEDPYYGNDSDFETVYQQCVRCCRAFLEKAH

[9] = molecular target: T3, Low molecular weight phosphotyrosine protein phosphatase; assay type: functional; conditions: read-out: IC50_Mean; remark: listed apart in the source
[10] = molecular target: T4, Tyrosine-protein phosphatase non-receptor type 22 (Homo sapiens, UniProt Q9Y2R2); assay: PTPN22 enzyme inhibitors – biochemical, fluorescence, LYP catalytic domain, selectivity assay for LMPTP inhibitor project, dose response (AID 652006); assay type: functional; conditions: read-out: IC50_Mean
T4 sequence (Q9Y2R2 whole entry): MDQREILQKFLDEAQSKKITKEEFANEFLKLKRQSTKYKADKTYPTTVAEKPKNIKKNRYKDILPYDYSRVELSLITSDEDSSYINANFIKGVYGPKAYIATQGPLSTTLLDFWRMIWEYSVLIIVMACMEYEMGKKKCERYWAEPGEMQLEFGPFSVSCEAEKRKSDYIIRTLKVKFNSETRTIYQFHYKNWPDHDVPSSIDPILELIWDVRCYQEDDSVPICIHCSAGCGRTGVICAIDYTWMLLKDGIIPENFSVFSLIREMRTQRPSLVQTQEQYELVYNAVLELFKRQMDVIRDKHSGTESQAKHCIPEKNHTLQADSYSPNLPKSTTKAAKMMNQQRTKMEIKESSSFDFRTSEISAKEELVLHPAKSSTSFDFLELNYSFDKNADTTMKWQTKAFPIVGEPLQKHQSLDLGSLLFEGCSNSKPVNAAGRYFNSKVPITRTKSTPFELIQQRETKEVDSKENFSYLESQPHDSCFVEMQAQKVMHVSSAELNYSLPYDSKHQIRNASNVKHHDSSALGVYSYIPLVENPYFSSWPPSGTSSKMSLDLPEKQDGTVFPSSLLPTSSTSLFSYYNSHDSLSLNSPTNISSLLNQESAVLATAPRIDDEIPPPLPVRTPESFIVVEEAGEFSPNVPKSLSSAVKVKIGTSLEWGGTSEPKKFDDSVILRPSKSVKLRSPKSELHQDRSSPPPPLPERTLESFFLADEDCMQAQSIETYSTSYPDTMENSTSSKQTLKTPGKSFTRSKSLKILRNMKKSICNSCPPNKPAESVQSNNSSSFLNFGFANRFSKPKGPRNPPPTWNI

Mu-type opioid receptor = Mu-type opioid receptor (Homo sapiens, UniProt P35372); assay type: functional, cell-based;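 note: U2OS cells with beta-arrestin recruitment to OPRM1 by beta-gal complementation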
[11] = molecular target: 5-hydroxytryptamine receptor 2A (Mus musculus, UniProt P35363); assay type: functional, cell-based;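 note: CHO-K1 cells with tagged receptor and beta-arrestin; agonist potency measured as compound-induced activation of the receptor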
Vero = assay: viability loss in Vero cells – cell-based, plate reader, cherry-pick samples, cytotoxicity control, dose response (AID 687020); assay type: functional; conditions: Chlorocebus sabaeus
[12] = molecular target: T5, Palmitoyl-protein thioesterase ABHD10, mitochondrial (Mus musculus, UniProt Q6PE15); assay: Late stage assay provider results from the probe development effort to identify inhibitors of PME-1: fluorescence-based dose response cell-based gel-based competitive Activity-Based Protein Profiling (ABPP) inhibition of ABHD10.; assay type: functional
[13] = molecular target: T5, Palmitoyl-protein thioesterase ABHD10, mitochondrial; assay: Late stage assay provider results from the probe development effort to identify inhibitors of PME-1: fluorescence-based dose response biochemical gel-based competitive Activity-Based Protein Profiling (ABPP) inhibition of ABHD10 Set 1.; assay type: functional
[14] = Luminescence Cell-Based Dose Confirmation HTS to Identify Activators of 5'UTR Stem-Loop Driven Alpha-Synuclein mRNA Translation in H4 Neuroglioblastoma Cells. [Related pubchem assays: 1829 (Project Summary), 1814 (Primary HTS)]; assay type: functional
[15] = Luminescence Cell-Based Dose Response HTS to Identify Activators of Luciferase Translation or Activity in H4 […] Cells. [Related pubchem assays: 1829 (Project Summary), 1814 (Primary HTS)]; assay type: functional
H4 = assay: Luminescence Cell-Based Dose Response HTS to Identify Activators of 5'UTR Stem-Loop Driven Prion Protein mRNA Translation in H4 Neuroglioblastoma Cells. [Related pubchem assays: 1829 (Project Summary), 1814 (Primary HTS)]; assay type: functional; conditions: Homo sapiens
[16] = molecular target: T6, Carboxy-terminal domain RNA polymerase II polypeptide A small phosphatase 1 (Homo sapiens, UniProt Q9GZU7); assay: CTDSP1 inhibitors, concentration-response, biochemical, absorbance readout, ultra-high-throughput screen actives (AID 540297); assay type: functional
T6 sequence (Q9GZU7 whole entry): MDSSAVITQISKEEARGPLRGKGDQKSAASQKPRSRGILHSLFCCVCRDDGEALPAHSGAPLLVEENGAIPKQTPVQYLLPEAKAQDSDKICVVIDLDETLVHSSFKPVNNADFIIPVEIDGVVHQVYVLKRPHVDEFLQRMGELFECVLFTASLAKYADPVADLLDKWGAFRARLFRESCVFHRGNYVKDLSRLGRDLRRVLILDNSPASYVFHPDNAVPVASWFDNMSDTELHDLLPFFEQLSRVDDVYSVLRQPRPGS

[17] = molecular target: T7, Tyrosine-protein phosphatase non-receptor type 11 (Homo sapiens, UniProt Q06124); assay: PTPN11 enzyme inhibitors – biochemical, selectivity assay for STEP inhibitor project, dose response (AID 602367); assay type: functional; conditions: read-out: IC50_Mean
T7 sequence (Q06124 whole entry): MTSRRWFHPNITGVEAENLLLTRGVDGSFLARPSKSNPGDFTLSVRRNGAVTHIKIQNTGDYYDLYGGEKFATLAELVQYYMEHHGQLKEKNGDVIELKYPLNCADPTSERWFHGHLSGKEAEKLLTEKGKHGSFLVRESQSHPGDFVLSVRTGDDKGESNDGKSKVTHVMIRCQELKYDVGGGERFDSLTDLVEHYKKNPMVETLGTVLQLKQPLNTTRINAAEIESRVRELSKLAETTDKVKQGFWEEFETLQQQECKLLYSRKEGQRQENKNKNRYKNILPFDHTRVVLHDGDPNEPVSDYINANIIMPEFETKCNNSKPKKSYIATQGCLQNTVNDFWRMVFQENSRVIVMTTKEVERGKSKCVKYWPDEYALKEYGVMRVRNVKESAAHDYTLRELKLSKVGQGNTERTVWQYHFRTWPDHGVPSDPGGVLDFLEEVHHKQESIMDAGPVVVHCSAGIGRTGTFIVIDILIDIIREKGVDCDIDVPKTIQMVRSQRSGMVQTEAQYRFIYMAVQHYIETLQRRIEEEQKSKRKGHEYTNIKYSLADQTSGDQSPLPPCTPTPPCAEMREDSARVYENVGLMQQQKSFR

[18] = molecular target: T8, Tyrosine-protein phosphatase non-receptor type 5 (Homo sapiens, UniProt P54829); assay: PTPN5 enzyme inhibition – biochemical, fluorescence intensity, uHTS hits, confirmation (AID 602372); assay type: functional; conditions: read-out: IC50_Mean
T8 sequence (P54829 whole entry): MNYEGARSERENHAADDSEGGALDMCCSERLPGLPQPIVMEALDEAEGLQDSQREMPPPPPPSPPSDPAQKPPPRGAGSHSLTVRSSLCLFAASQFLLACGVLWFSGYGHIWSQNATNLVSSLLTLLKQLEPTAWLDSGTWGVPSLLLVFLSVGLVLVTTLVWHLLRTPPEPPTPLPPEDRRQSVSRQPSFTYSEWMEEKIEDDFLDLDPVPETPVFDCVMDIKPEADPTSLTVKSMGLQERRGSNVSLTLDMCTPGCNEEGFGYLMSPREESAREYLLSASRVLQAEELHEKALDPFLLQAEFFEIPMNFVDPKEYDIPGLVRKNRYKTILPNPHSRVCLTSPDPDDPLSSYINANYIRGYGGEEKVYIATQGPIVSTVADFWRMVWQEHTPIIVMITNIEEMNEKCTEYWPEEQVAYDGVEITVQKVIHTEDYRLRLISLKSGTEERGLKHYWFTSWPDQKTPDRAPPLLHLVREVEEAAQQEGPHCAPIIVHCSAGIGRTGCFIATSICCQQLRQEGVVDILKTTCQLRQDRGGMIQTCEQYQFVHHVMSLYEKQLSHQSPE

[19] = molecular target: Dual specificity protein phosphatase 3 (Homo sapiens, UniProt P51452); assay: VHR phosphatase inhibition, dose response, selectivity assay for STEP inhibitor project, biochemical (AID 602374); assay type: functional; conditions: read-out: IC50_Mean
[20] = molecular target: T4, Tyrosine-protein phosphatase non-receptor type 22; assay: lymphoid phosphatase LYP inhibitors – biochemical, selectivity assay for STEP inhibitor project, dose response (AID 624241); assay type: functional
[21] = molecular target: ADP-ribosylation factor GTPase-activating protein 1 (Rattus norvegicus, UniProt Q62848); assay: Fluorescence polarization-based biochemical high throughput dose response screening assay to identify inhibitors of ADP-ribosylation factor GTPase activating protein 1 (ARFGAP1).; assay type: functional
[22] = molecular target: Arf-GAP with SH3 domain, ANK repeat and PH domain-containing protein 1 (Homo sapiens, UniProt Q9ULH1); assay type: functional;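 note: biochemical fluorescence polarization dose–response screen measuring inhibition of ASAP1; ASAP1 GAP domain stimulating GTP hydrolysis by truncated human ARF1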
Chain of Arf-GAP with SH3 domain, ANK repeat and PH domain-containing protein 1 (Q9ULH1 whole entry, the tested form may be a part): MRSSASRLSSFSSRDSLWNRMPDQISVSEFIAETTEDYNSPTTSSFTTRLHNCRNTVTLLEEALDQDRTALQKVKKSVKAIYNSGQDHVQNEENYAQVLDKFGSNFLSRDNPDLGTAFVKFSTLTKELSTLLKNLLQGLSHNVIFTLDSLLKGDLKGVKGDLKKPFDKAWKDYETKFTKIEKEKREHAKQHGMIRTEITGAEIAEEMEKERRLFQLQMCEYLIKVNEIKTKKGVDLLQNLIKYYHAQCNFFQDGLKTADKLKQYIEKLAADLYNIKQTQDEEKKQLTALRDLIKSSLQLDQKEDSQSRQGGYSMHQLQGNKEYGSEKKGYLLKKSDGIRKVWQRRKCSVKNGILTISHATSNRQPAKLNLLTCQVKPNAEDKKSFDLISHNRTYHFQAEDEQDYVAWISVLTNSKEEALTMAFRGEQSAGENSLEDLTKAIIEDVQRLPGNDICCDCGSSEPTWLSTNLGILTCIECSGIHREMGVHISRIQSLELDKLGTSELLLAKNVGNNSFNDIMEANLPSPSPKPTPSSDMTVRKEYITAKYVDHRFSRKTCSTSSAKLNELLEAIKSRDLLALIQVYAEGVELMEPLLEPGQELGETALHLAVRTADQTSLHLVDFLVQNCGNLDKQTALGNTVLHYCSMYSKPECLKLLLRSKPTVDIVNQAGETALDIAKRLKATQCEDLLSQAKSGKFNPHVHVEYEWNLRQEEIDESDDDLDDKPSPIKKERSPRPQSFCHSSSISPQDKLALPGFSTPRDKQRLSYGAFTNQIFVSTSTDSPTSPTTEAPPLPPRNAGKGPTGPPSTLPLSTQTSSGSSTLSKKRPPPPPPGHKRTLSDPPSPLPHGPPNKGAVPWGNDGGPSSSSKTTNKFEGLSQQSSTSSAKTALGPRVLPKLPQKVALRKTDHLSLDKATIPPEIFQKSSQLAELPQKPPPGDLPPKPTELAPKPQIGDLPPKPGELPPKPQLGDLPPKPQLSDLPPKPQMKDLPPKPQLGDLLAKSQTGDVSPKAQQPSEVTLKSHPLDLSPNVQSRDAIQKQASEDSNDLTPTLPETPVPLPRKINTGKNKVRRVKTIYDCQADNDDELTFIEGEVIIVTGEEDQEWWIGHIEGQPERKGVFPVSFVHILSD

T5 sequence (Q6PE15 whole entry): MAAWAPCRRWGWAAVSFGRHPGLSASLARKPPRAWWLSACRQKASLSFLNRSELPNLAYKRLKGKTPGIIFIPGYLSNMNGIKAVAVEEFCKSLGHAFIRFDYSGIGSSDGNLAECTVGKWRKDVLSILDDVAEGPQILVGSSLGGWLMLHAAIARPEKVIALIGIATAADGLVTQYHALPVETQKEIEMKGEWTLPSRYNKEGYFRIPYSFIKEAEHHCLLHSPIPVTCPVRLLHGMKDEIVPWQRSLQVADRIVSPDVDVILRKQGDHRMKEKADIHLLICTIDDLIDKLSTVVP
Chain of 5-hydroxytryptamine receptor 2A (P35363 whole entry): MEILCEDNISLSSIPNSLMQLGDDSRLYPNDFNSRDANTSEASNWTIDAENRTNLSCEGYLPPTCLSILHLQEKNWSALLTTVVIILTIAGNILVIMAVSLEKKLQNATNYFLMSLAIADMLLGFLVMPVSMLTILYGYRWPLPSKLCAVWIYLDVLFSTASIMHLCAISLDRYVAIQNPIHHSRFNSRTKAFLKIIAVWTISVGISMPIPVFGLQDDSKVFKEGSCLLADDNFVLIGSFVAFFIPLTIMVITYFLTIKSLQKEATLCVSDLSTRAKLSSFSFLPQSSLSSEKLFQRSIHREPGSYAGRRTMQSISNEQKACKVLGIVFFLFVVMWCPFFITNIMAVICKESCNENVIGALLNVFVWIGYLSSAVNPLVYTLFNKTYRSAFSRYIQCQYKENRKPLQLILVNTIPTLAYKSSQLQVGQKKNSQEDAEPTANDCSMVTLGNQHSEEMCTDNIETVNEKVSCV
Chain of Beta-lactamase (Salmonella choleraesuis (strain SC-B67), UniProt Q5J463) (Q5J463 whole entry): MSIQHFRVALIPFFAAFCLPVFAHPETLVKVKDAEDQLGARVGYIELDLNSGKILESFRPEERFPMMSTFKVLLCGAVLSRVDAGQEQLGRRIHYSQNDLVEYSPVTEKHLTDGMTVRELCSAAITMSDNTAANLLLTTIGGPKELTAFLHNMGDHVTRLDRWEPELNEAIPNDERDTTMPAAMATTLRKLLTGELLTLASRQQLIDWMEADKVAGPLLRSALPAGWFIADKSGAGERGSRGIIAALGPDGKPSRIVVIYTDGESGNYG
Chain of Botulinum neurotoxin type F (P30996 1-436 limits assumed): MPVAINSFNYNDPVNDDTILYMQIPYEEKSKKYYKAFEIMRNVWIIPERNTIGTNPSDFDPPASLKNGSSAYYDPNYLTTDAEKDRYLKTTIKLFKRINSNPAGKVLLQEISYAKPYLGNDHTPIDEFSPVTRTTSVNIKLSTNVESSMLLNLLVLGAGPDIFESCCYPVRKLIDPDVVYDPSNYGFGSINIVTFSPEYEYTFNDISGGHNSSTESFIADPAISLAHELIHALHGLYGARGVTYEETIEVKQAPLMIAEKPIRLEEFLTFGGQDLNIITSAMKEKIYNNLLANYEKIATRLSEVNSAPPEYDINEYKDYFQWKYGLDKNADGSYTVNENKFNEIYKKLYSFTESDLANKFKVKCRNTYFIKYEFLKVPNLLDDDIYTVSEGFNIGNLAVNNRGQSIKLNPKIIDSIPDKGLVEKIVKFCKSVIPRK
Chain of Mu-type opioid receptor (P35372 whole entry): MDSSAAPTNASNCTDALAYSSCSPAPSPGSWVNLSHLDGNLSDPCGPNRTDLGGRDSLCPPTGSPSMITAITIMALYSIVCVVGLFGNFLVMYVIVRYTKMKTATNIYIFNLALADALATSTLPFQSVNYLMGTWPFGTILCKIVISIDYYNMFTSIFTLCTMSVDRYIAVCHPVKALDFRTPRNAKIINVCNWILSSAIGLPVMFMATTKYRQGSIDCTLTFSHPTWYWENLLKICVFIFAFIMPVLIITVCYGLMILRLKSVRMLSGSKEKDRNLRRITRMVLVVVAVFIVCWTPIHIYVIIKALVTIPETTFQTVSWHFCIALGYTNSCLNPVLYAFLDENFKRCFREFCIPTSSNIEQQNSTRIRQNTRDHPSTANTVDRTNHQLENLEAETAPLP
Chain of ADP-ribosylation factor GTPase-activating protein 1 (Q62848 whole entry, the tested form may be a part): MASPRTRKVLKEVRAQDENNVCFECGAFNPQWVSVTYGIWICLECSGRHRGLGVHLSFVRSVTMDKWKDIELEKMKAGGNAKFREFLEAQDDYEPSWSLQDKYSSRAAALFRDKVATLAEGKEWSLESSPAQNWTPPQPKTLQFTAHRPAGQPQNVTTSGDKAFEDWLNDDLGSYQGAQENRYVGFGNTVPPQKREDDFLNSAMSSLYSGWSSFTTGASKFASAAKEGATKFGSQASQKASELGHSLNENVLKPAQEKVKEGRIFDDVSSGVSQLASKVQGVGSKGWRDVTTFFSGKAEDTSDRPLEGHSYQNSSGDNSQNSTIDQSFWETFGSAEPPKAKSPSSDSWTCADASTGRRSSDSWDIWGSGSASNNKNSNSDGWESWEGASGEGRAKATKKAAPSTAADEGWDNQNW
Chain of Beta-lactamase (Pseudomonas aeruginosa, UniProt Q79MP6) (Q79MP6 whole entry): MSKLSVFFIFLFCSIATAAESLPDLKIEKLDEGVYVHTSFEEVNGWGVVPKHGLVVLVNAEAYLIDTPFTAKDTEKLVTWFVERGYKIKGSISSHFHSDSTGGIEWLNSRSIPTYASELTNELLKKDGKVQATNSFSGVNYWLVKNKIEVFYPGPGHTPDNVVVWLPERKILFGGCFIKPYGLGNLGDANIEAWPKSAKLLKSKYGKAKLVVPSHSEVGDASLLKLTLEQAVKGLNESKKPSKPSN
Chain of Dual specificity protein phosphatase 3 (P51452 whole entry): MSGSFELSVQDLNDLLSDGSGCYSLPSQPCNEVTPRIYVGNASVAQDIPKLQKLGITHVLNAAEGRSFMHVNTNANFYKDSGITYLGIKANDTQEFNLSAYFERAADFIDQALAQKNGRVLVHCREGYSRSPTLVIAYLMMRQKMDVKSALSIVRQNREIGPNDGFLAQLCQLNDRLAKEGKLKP
Chain of Lethal factor (P15917 whole entry): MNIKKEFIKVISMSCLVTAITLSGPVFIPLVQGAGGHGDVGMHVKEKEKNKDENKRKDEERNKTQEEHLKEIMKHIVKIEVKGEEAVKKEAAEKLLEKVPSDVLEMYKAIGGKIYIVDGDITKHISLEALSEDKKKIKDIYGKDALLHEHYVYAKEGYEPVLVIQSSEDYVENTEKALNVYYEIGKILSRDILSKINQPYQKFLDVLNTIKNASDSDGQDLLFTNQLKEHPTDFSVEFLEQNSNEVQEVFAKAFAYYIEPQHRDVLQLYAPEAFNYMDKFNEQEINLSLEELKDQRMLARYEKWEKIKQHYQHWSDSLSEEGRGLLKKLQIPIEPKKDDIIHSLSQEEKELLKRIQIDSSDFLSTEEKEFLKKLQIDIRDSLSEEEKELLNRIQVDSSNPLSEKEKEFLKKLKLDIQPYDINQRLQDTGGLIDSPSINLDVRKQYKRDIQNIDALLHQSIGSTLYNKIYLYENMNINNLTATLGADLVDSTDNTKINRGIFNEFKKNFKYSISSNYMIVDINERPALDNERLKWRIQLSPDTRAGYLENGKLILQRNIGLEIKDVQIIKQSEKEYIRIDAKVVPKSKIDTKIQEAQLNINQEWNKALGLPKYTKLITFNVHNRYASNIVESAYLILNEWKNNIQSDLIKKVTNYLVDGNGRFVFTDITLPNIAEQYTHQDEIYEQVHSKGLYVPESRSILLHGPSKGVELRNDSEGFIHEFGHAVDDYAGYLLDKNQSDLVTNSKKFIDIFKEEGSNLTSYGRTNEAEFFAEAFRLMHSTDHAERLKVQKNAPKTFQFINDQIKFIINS

Cc1cc2ccccc2n1CCNC(=O)C(C)C
EC50 [1]: > 195 µM (not active)
EC50 (Lethal factor): 19.5 µM (active)
EC50 [2]: > 20 µM (inactive)
IC50 (Protein skinhead-1): 94.3 µM (inactive)

CCN(CC)c1ccc2cc(C(=O)NCc3ccc(F)cc3)c(=N)oc2c1
IC50 (Beta-lactamase [3]): > 59.6 µM (inactive)
IC50 (Beta-lactamase [4]): 28.1 µM (inactive)
IC50 (cells): 2.12 µM (active)

COc1cccc(CNc2nc(NCC3CC3)nc3ccsc23)c1OC
AC50 [5]: 4.48 µM (active)
AC50 [6]: 34 µM (active)
AC50 [7]: 23.6 µM (active)
IC50 [8]: 12.3 µM (active)
IC50 [9]: 11.5 µM (active)
IC50 [10]: 33.3 µM (inactive)

O=[N+]([O-])c1cccc(CN2CCN(c3ncccn3)CC2)c1
EC50 (Mu-type opioid receptor): 92.5 µM (inactive)
EC50 [11]: 22.3 µM (inactive)

O=C(Nc1ccccc1C(F)(F)F)C(O)(c1ccccc1)C1CCCCC1 (stereo not drawn)
AC50 (Vero): 36.8 µM (active)

CC[C@@]1(c2ccc(C)cc2)C(=O)N(C(=O)OC(C)C)N1C(=O)OC(C)C
IC50 [12]: 0.028 µM (active)
IC50 [13]: 0.017 µM (active)

N#C/C(=C\c1ccc(OC(=O)c2ccc(Cl)s2)cc1)c1nc2ccccc2[nH]1
EC50 [14]: 13.1 µM (active)
EC50 [15]: 19.1 µM (active)
EC50 (H4): 71.4 µM (active)
IC50 [16]: 1.77 µM (active)
IC50 [17]: 1.29 µM (active)
IC50 [18]: 16.9 µM (active)
IC50 [19]: 2.49 µM (active)
IC50 [20]: 22.9 µM (inactive)

Cc1ccc(OCc2ccc(C(=O)Nc3ccc(C(N)=O)cc3)o2)c([N+](=O)[O-])c1
IC50 [21]: 16.7 µM (inactive)
IC50 [22]: 14 µM (inactive)
